For the experiment, the system named is naïve ELA-specific CD8+ T cell precursors in HLA-A2+ PBMCs. In words: In vitro priming of ELA-specific CD8+ T cells from unfractionated PBMCs, ELA/HLA-A2 tetramer enumeration and CD45RA/CCR7 phenotype. It is filed as cell-based, human. Particulars: day 10 after priming of HLA-A2+ PBMCs with ELA-20 1 μM.

Text: Naïve precursors specific for the HLA-A*02:01-restricted epitope [sequence] […] The frequency, phenotype and functional profiling of ELA-specific CD8+ T cells were typically determined on day 10 or 11. Purified naïve and memory CD8+ T cell subsets for priming experiments were obtained using T Cell Enrichment Column Kits (R&D Systems).
ELA-specific CD8^+ T cells were quantified by flow cytometry using fluorochrome-labeled ELA/HLA-A*02:01 tetramers (FIG. 2A). […] For this purpose, we mixed purified naïve or memory CD8^+ T cells separately with autologous CD8-depleted PBMCs to initiate priming (FIG. 2B).
Moreover, to ensure optimal immunogenicity, we used the heteroclitic sequence [sequence]

Regarding lipopolysaccharide [TLR4L], the “magnitude of primed/expanded ELA tetramer+ CD8+ T cells” value is “only marginal effects”.

For the origin of these results see patent US20160341718A1, “METHODS FOR TESTING T CELL PRIMING EFFICACY IN A SUBJECT” (priority 2014, published 2016).
